# According to a melting point compilation (Tetko et al.; mined from patent text by program, amines drawn as free bases though some values may be those of a salt):
row,Structure (SMILES),melting point
1,Cc1ccc(C(=O)Nc2cn(C3CCCCO3)nc2C(=O)NCCO)cn1 (stereo not given),140 °C
2,N#Cc1ccc(C=NO)cc1,174 to 176 °C
3,CCCn1c(=O)c2[nH]cnc2n(CCC)c1=O,201 to 205 °C
4,COc1ccc(-c2nc(N3CCOCC3)c3sc(CN(C)c4ncc(C(=O)NO)cn4)cc3n2)cn1,177 to 180 °C
5,N[C@@H](Cc1ccc(C(F)(F)F)cc1)[C@H](O)c1ccncc1 (racemic),97 to 98 °C
6,COc1ccc(-c2cn([C@H]3CN4CCC3CC4)nn2)cc1,122 °C
7,O=c1[nH]cc(Br)cc1Nc1ccncn1,150 to 151 °C
8,COc1cc(OC)c2c(=O)c3c(Cl)ccc([N+](=O)[O-])c3[nH]c2c1,291 to 294 °C
9,C=CCN1Cc2nc3c(cnn3CCCl)c(N)c2C1=O,198 to 199 °C
10,Cc1c(-c2ccccc2)oc2c(COCCCl)cccc2c1=O,102 to 103 °C
11,CN1CCC(=C2c3ccc(F)cc3Sc3ccc(F)cc32)CC1,120 to 123 °C
12,C#Cc1ccc(C(=O)Cl)cc1,32 to 34 °C
13,N#CCOc1ccc2cc(-c3csc(-c4ccccc4)n3)ccc2c1,113 to 117 °C
14,CCOC(=O)C(=CNc1ccn(Cc2ccccc2)n1)C(=O)OCC,57 to 59 °C
15,Cc1ccccc1-c1cn(C)cc(-c2cccc(C(F)(F)F)c2)c1=O,144 to 147 °C
16,CCCc1cc2cccc(C(=O)OCOC(=O)C(C)(C)C)c2n1Cc1ccc(-c2ccccc2-c2nnn[nH]2)cc1,101 to 103 °C
17,Clc1ccc(-c2ncsc2Cn2cncn2)c(Cl)c1,120 to 123 °C
18,Cc1cccc(C2=CCN(CCCn3c(=O)[nH]c4cccc(C)c4c3=O)CC2)n1,200 to 203 °C
19,O=C1N(Cc2ccc(F)cc2Cl)c2ccccc2C12COc1cc3c(cc12)OCO3 (stereo not given),174 to 175 °C
20,CC(C)c1c(/C=C/C=O)c(-c2ccccc2)c2c3ccccc3cnn12,162 to 164 °C
21,COc1ccc2c(c1)c1c3c(c(-c4ccccc4)cc1n2CCC(N)=O)C(=O)NC3=O,266 to 270 °C
22,Cc1cc(=O)[nH]c(SCc2ccccc2N(C)C)n1,152 to 154 °C
23,CC(C)(C)c1ccc(C(=O)Cc2ccncc2)cc1,75 to 76 °C
24,CCOC(=O)C(=O)Nc1c(C)oc2ccccc2c1=O,100 °C
25,O=C1CC2CCSc3sc(CCO)cc3C2=NN1 (stereo not given),165 to 167 °C

row,Structure (SMILES),melting point
1,CCOC(=O)COC(=O)c1cc(NC(=O)OCc2ccccc2)ccc1OCC(=O)OCC,77 to 78 °C
2,OC1(F)OC(F)(F)C1(F)F (stereo not given),90 to 91 °C
3,COc1ccc(S(=O)(=O)C(C)(Cc2ccccc2Br)C(=O)NO)cc1 (stereo not given),93 to 96 °C
4,COc1ccc(CSc2cccc(C(=O)Nc3ccc(C#N)cn3)c2)cc1,163 to 164 °C
5,Cc1nc2cc(NC(=O)c3cc4cc(F)ncc4n3Cc3cccc(F)c3)ccc2s1,193 to 195 °C
6,c1ccc(Oc2nnns2)cc1,35 to 36 °C
7,Cc1ccc(C(=O)Nc2cc(-n3cncc3C)cc(C(F)(F)F)c2)cc1Nc1nccc(-c2cccnc2)n1,231 to 233 °C
8,CN(C)c1nc(Br)cnc1N,145 °C
9,CC(C(N)=O)c1ccc2c(c1)CCc1ccccc1O2 (stereo not given),122 to 123 °C
10,O=Cc1cc(OCc2ccccc2)c(OCc2ccccc2)cn1,104 °C
11,NC(=O)c1cc2c(Oc3ccc(Cl)cc3)c[nH]c(=O)c2s1,> 250 °C
12,CCC1(c2ccc(COc3ccc(CO)c(CO)c3)s2)OCCO1,78 to 80 °C
13,CC(C)C(=O)Nc1ccc(N)c(C(F)(F)F)c1,114 to 116 °C
14,CCOC(=O)C(CC)Nc1ccc2ccccc2c1 (stereo not given),81 to 83 °C
15,O=C(O)Cc1c(C(=O)O)c2cc(Oc3ccc(Cl)cc3)ccc2n1-c1ccc(N2CCCCC2)cc1,183 to 187 °C
16,CCc1c(N)c(C(N)=O)nn1CCOC,131 °C
17,COC1CN(c2ccc(N3C[C@H](CO)OC3=O)cc2F)C1,131 to 132 °C
18,N#Cc1ccc(C2C3=C(CCCC3)NC3=C2C(=O)CCC3)cc1C(F)(F)F (stereo not given),210 to 212 °C
19,CC1(C)C(=O)C(C(=O)c2ccc(Cl)cc2[N+](=O)[O-])C(=O)C(C)(C)C1=O,76 to 82 °C
20,O=C(CCN1CCN(c2cccc(Cl)c2Cl)CC1)N1CCc2ccccc21,157 to 158 °C
21,CC(=O)OC(C=C(C)C=CC=C(C)C=O)OC(C)=O,99.5 °C
22,c1ccc(Oc2ccncc2)cc1,46 to 49 °C
23,O=P(O)(O)C(F)(F)c1ccc(CNCc2ccc(C(F)(F)P(=O)(O)O)cc2)cc1,106 to 108 °C
24,CCOC(=O)C(=O)CC(=O)/C=C/c1ccc(Cl)cc1F,84 to 85 °C
25,FC(F)(F)c1cccc(-c2ccn3nccc3n2)c1,117 to 118 °C

row,Structure (SMILES),melting point
1,NS(=O)(=O)c1ccc(-n2nc(C(F)(F)F)c3c2-c2ccccc2CC3)cc1,257 to 258 °C
2,O=C(c1cccnc1)c1cccc(NC(=O)c2ccn3c2CSC3c2cccnc2)c1 (stereo not given),160 °C
3,CCC(O)c1ccccc1-c1ccc(C(=O)N2Cc3ccc(C(=O)NCc4cccnc4)n3Cc3ccccc32)cc1 (stereo not given),111 to 115 °C
4,On1nnc2ccc(C3CCCc4cncn43)cc21 (stereo not given),279 °C
5,COc1ccc2cccc(C(CO)CNC(=O)C3CC3)c2c1 (stereo not given),153 to 154 °C
6,Cc1cc(F)ccc1-c1nc(OCCO)nc2c1CNC(=O)N2c1c(F)cccc1F,172 to 175 °C
7,COCCOc1cc(N)c(Cl)cc1C(=O)NCC12CCCN(CCC1)C2,154 to 156 °C
8,COc1cccc(SCCC(=O)O)c1F,72 to 74 °C
9,Cc1ccc(-c2nc(CCCCCCOC(C)(C)C#N)c(C)o2)cc1,36 °C
10,CCCN1C(=O)CC(=O)N(c2ccccc2)c2cc(Cl)ccc21,192 to 194 °C
11,O=C/C=C/C=C/c1ccc(OCC(F)(F)C(F)F)cc1,53 to 55 °C
12,Nc1ccc(NC(=O)C=C2CC(C(=O)O)Nc3cc(Cl)cc(Cl)c32)cc1 (racemic),> 250 °C
13,CCOC(=O)c1ncn2c1CN(Cc1ccc(OC)cc1OC)C(=O)c1cc(F)ccc1-2,159 to 160 °C
14,CC(C)=C1OC(=O)N(c2cc(OC3CCCC3)c(Cl)cc2F)C1=N,131 to 133 °C
15,CCc1c(COC(C)=O)nc(-c2ccc(OC)c(OC)c2)c2cc(OC)c(OC)cc12,129 to 131 °C
16,NC(=O)c1cc2c(Oc3ccc(-n4ccnc4)cc3)cncc2s1,310 to 312 °C
17,O=c1n(-c2cc(O)c(Cl)cc2Cl)nc2n1CCCC2,211 to 212 °C
18,COc1cccc(OCCF)c1-c1ccc(C[C@H](NC(=O)c2c(Cl)cccc2Cl)C(=O)O)cc1,206 to 207 °C
19,Cc1oc(-c2cccs2)nc1CCOc1ccc(N)cn1,120 to 122 °C
20,CCCCCCCC/C=C\CCCCCCCC(=O)NCCNC(=O)CCNC(=O)C1OC(C)(C)OCC1(C)C (stereo not given),110 to 112 °C
21,CCc1nc(-n2ccnc2)c2ccccc2c1Cl,115 °C
22,CC1(C)NC(=O)N(CC(CS(=O)(=O)C2(C(F)(F)F)C=CC(c3ccccc3)=CC2)N(O)C=O)C1=O (stereo not given),206 °C
23,CNS(=O)(=O)c1c(C)n(C)c2cc(F)ccc2c1=O,184 °C
24,CSc1cc(N)nc(C(N)=O)c1,158 to 159 °C
25,CCN(CC)C(=O)C1(OC(=S)N(CC)CC)C=CC=NC1F (stereo not given),87 to 92 °C
